# Like-named read-outs stand apart in the source and are kept apart here.
# What was measured:
# solubility in water = format: physicochemical
# Description: To 6.22 g (20.8 mmol) of ricinoleic acid and 4.00 g of triethylamine in 150 mL THF was added 2.31 g (9.0 mmol) of ethylenediamine tetraacetic acid dianhydride. After stirring 15 min at 40° C., 20 mL of acetonitrile was added, since ethylenediamine tetraacetic acid dianhydride was not dissolved completely. The solution was stirred for 72 h under reflux and gradually turned yellow during this time. The solvent was removed under reduced pressure. The mixture was suspended in 100 mL of ether and extracted twice with 50 mL of saturated aqueous sodium chloride. After drying the ether solution, the solvent was removed under reduced pressure. The residue was suspended in methanol and filtered. The solvent was removed under reduced pressure. The residual oil was purified by chromatography on silica gel, eluted with a gradient of acetone/methanol (70:30 v/v to 0:100 v/v). N,N-bis(oleic acid-12-oxycarbonylmethyl)-N-N′-bis(carboxylmethyl) ethylenediamine was isolated as a yellow solid with a yield of 1.23 g (14%).
# [1] = test system: PLA2 activities derived from human platelets and human polymorphonuclear leukocytes (PMNs); assay: in vitro PLA2 activities from human platelets and PMNs; format: biochemical; settings: unesterified cis-unsaturated fatty acids
# From the text: Oxidation of the sarcoplasmic reticulum of muscle and of phospholipid membranes predisposes them to phospholipase degradation. Phospholipid membranes that have been oxidized at particular sites may appear intact and maintain functional activity, but their oxidation makes them vulnerable to degradation and destruction by PLA2 or other phospholipases from endogenous or exogenous sources.
# clone D6 (P. falciparum) = assay: 3H-hypoxanthine incorporation, P.falciparum clone D6; format: cell-based; settings: Plasmodium falciparum
# clone W2 (P.falciparum) = assay: 3H-hypoxanthine incorporation, P.falciparum clone W2; format: cell-based; settings: Plasmodium falciparum
# epidermal layer = assay: transepidermal water loss; format: in vivo, human
# Description: (§1) Two PX compounds PX-11 and PX-13 were evaluated in a cream formulation prepared under GMP. The chemicals were formulated into a bland cream and evaluated in the following human or mouse skin tests: (1) occluded patch test for irritation; (2) cell turnover rate; (3) transepidermal water loss; (4) skin moisturization; and (5) reduction in erythema after induced sunburn. The human skin tests were conducted on three volunteer female subjects, ages 29-32; a cream base with no added active was included as a control, while the untreated skin served as an additional basis for evaluation. Sunburn tests were performed on a total of 30 hairless albino mice. 3. Transepidermal water loss. This parameter was measured by affixing a flow cell on the forearm site, applying the cream, waiting 20 minutes, then flushing the volume with nitrogen and noting the moisture content of the effluent gases.
# epidermis cell turnover = assay: cell turnover rate (dansyl chloride); format: in vivo, human
# Description: as §1, with “2. Cell turnover rate:” for “3. Transepidermal water loss.”, “adsorption of dansyl chloride, in which 3% dansyl chloride was incorporated into petrolatum. This salve was applied over” for “affixing”, “2.5 cm diameter circular area in” for “flow cell on”, “upper arm and a patch applied. 24 hours later” for “forearm site, applying”, “patch was removed. The intensity of dansyl chloride fluorescence was indicative” for “cream, waiting 20 minutes, then flushing the volume with nitrogen and noting the moisture content”, “cell turnover rate in the epidermis.” for “effluent gases.”
# [2] = test system: ultraviolet-induced erythema; assay: protection against ultraviolet-induced erythema; format: in vivo, hairless albino mice
# Description: The human skin tests were conducted on three volunteer female subjects, ages 29-32; a cream base with no added active was included as a control, while the untreated skin served as an additional basis for evaluation. Sunburn tests were performed on a total of 30 hairless albino mice.
# 5.Protection against ultraviolet-induced ervthema. The protection against ultraviolet-induced erythema (i.e., the burn and irritation produced after exposure to ultraviolet radiation), was measured by first irradiating 12 mice with destructive 3130 angstrom (Å) rays, applying the creams, and then evaluating the skin cells for erythema.
# outer skin layers = assay: skin moisturization (20 megahertz ultrasound); format: in vivo, human; settings: for Ultrasound Density Score: 30 minutes after application
# Description: as §1, with “4. Skin moisturization. Skin moisturization” for “3. Transepidermal water loss. This parameter”, “using 20 megahertz ultrasound (the presence of moisture produces” for “by affixing”, “density decrease in” for “flow cell on”, “outer skin layers), before and 30 minutes after product application to” for “forearm site, applying”, “forearm.” for “cream, waiting 20 minutes, then flushing the volume with nitrogen and noting the moisture content of the effluent gases.”
compound,measurement,setting,value
"CCCCCCC(CC=CCCCCCCCC(=O)O)OC(=O)CN(CCN(CC(=O)O)CC(=O)OC(CC=CCCCCCCCC(=O)O)CCCCCC)CC(=O)O (centres unmarked) [N,N-Bis(oleic acid-12-oxycarbonylmethyl)-N-N′bis(carboxylmethyl) ethylenediamine]",solubility in water,solubility in water,readily soluble in water
CCCCC/C=C\C/C=C\C/C=C\C/C=C\CCCC(=O)O [arachidonic acid],inhibition of in vitro PLA2 activity,[1],inhibited
CCN(CC)CCCC(C)Nc1ccnc2cc(Cl)ccc12 (centres unmarked) [chloroquine],IC50,"clone D6 (P. falciparum); D6, read-out: IC50 growth",1.6 ng/mL
same,IC50,"clone W2 (P.falciparum); W2, read-out: IC50 growth",30 ng/mL
CCCCC/C=C\C/C=C\CCCCCCCC(=O)O [linoleic acid],inhibition of in vitro PLA2 activity,[1],inhibited
OC(c1cc(C(F)(F)F)nc2c(C(F)(F)F)cccc12)C1CCCCN1 (centres unmarked) [mefloquine],IC50,"clone D6 (P. falciparum); printed as control cultures sensitive to both drugs, compared with clone D6, read-out: IC50 growth",4.3 ng/mL
same,IC50,"clone W2 (P.falciparum); printed as control cultures sensitive to both drugs, compared with clone W2, read-out: IC50 growth",1.3 ng/mL
CCCCCCCC/C=C\CCCCCCCC(=O)O [oleic acid],inhibition of in vitro PLA2 activity,[1],inhibited
tricinyl trioleate [PX-11],% Change in Transepidermal Water Loss,"epidermal layer; forearm, 20 minutes after applying cream",+649.0%
same,effect on water loss from the epidermal layer,epidermal layer; in vivo,opened the pores and permitted water to escape
same,effectiveness at promoting water loss vs control,epidermal layer; relative to control cream,10 times
same,Days to Cell Renewal Treated,"epidermis cell turnover; cream-treated skin, upper arm",28.8 days
same,% Change in Cell Turnover Time,epidermis cell turnover; treated vs untreated skin,+34%
same,Post-Radiation Erythema Ranking Mean,"[2]; Mean, 1 = Best, 4 = Worst",2
same,Post-Radiation Erythema Ranking,"[2]; Subject 1, 1 = Best, 4 = Worst",2
same,Post-Radiation Erythema Ranking,"[2]; Subject 2, 1 = Best, 4 = Worst",2
same,Post-Radiation Erythema Ranking,"[2]; Subject 3, 1 = Best, 4 = Worst",2
same,erythema reduction vs base cream,"[2]; mouse, in vivo",significantly better than the base cream
same,Ultrasound Density Score,"outer skin layers; Subject 1, 7 = Best, 1 = Baseline",3
same,Ultrasound Density Score,outer skin layers; Subject 2,3
same,Ultrasound Density Score,outer skin layers; Subject 3,1
same,Ultrasound Density Score Total,"outer skin layers; Total of 3 subjects, 7 = Best, 1 = Baseline",7
same,moisturization properties,outer skin layers; in vivo,good moisturization properties

# From US6423855B1, “Cytoprotective compounds” (Virginia Commonwealth University, priority 1996, dated 2002)
